Data as given in ChEMBL document CHEMBL1811808, “A mechanism-based potent sirtuin inhibitor containing Nε-thiocarbamoyl-lysine (TuAcK)” (Bioorg Med Chem Lett, 2011).
Active and inactive are the calls of the source. The calls are words filed in the database; no cut-off is given here. Square brackets hold non-standard residues; d marks the D form. Peptide text beside a SMILES is read from it. Asu = N[C@@H](CCCCCC(=O)O)C(=O)O

Tests used:
[1] = molecular target: T1, NAD-dependent protein deacetylase sirtuin-1 (Homo sapiens, UniProt Q96EB6); experiment: Inhibition of human GST-tagged SIRT1 using H2NHK-AcK-LM-COOH as substrate assessed as enzymatic deacetylation product formation after 5 mins by HPLC analysis
T1 sequence (Q96EB6 whole entry): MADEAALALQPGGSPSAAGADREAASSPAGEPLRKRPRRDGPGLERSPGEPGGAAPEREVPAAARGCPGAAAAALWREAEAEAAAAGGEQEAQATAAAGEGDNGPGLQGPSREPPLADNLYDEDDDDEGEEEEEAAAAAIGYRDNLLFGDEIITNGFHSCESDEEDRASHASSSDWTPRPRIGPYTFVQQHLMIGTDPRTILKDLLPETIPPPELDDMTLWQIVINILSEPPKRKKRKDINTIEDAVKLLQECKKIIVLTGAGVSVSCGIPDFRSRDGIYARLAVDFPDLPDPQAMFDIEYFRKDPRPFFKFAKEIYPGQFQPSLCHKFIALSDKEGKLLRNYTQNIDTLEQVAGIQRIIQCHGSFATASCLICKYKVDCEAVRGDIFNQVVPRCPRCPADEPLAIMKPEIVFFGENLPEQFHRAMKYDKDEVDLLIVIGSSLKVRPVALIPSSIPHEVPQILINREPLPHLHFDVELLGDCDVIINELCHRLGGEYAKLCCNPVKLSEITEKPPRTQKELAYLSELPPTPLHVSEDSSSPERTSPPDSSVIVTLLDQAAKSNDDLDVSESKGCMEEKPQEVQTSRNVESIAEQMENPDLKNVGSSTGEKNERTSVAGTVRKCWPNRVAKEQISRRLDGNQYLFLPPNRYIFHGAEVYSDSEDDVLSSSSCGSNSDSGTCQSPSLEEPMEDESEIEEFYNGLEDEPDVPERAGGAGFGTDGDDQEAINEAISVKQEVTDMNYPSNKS

[2] = molecular target: T2, NAD-dependent protein deacetylase sirtuin-2 (Homo sapiens, UniProt Q8IXJ6); experiment: Inhibition of human full length SIRT2 using H2N-MPSD-AcK-TIGG-COOH as substrate assessed as enzymatic deacetylation product formation after 60 mins by HPLC analysis
T2 sequence (Q8IXJ6 whole entry): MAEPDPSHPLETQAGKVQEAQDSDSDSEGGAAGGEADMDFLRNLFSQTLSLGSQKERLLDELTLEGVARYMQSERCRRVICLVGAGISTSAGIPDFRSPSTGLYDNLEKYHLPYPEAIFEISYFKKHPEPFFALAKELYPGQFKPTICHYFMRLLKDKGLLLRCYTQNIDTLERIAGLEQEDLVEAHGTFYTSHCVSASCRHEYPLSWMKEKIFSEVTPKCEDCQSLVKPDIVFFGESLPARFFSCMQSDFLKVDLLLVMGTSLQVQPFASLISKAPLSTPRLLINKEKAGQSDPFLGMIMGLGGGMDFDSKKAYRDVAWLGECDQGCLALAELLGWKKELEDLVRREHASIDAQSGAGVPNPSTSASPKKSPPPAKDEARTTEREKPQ

[3] = molecular target: T3, NAD-dependent protein deacetylase sirtuin-1 (Homo sapiens) (UniProt Q96EB6); experiment: Activity at SIRT1 assessed as formation of alkylamidate intermediate of compound at 0.6 mM after 1 min by MALDI-MS analysis in presence of NAD+
T3 sequence (whole entry): T1 sequence (Q96EB6 whole entry)

[4] = molecular target: T3, NAD-dependent protein deacetylase sirtuin-1 (Homo sapiens); experiment: Inhibition of SIRT1 in human HCT116 cells expressing wild type p53 assessed as increase in p53 acetylation at K382 after 10 hr by Western blot analysis; conditions: HCT-116

| IC50 [1] [µM] | IC50 [2] [µM] | Activity [3] | inhibition [4] | SMILES |
| --- | --- | --- | --- | --- |
| 290 | 190 | – | – | CC(=O)NCCCC[C@H](NC(=O)[C@H](CCCCCC(N)=O)NC(=O)[C@H](CCCCNC(C)=O)NC(C)=O)C(N)=O (Ac-Lys(Ac)-[Asu](NH2)-Lys(Ac)-NH2) |
| 89.5 | – | Active | Dose-dependent effect | CC(=O)NCCC[C@H](NC(=O)[C@H](CCCCNC(N)=S)NC(=O)[C@H](CCCNC(C)=O)NC(C)=O)C(N)=O |
